Measurements as given in patent publication US11866450B2, “Modulators of Cystic Fibrosis Transmembrane Conductance regulator, pharmaceutical compositions, methods of treatment, and process for making the modulators” (priority 2018, dated 2024).
Read-outs that look alike come from different tables or passages of the source.

Experiments:
[1] = snar bond
[2] = target: CFTR-mediated chloride transport (Homo sapiens, UniProt P13569); type: cell-based; settings: enteroid cells incubated with test compound 18-24 hours, acute 10 μM forskolin and 300 nM Compound III; for Max. Activity: % of chloride transport with 3 μM Compound A, 3 μM Compound II and 300 nM acute Compound III triple combination control
Method in brief: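 Membrane-potential fluorescence AUC over 15 min quantified CFTR chloride transport after acute forskolin (10 μM), IBMX (100 μM) and Compound III (300 nM) in chloride-free buffer. Human enteroid cells were pretreated with compound for 18–24 h; % Activity is relative to 3 μM Compound A + 3 μM Compound II + 300 nM Compound III.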

Sequence of CFTR-mediated chloride transport (P13569 whole entry, looked up): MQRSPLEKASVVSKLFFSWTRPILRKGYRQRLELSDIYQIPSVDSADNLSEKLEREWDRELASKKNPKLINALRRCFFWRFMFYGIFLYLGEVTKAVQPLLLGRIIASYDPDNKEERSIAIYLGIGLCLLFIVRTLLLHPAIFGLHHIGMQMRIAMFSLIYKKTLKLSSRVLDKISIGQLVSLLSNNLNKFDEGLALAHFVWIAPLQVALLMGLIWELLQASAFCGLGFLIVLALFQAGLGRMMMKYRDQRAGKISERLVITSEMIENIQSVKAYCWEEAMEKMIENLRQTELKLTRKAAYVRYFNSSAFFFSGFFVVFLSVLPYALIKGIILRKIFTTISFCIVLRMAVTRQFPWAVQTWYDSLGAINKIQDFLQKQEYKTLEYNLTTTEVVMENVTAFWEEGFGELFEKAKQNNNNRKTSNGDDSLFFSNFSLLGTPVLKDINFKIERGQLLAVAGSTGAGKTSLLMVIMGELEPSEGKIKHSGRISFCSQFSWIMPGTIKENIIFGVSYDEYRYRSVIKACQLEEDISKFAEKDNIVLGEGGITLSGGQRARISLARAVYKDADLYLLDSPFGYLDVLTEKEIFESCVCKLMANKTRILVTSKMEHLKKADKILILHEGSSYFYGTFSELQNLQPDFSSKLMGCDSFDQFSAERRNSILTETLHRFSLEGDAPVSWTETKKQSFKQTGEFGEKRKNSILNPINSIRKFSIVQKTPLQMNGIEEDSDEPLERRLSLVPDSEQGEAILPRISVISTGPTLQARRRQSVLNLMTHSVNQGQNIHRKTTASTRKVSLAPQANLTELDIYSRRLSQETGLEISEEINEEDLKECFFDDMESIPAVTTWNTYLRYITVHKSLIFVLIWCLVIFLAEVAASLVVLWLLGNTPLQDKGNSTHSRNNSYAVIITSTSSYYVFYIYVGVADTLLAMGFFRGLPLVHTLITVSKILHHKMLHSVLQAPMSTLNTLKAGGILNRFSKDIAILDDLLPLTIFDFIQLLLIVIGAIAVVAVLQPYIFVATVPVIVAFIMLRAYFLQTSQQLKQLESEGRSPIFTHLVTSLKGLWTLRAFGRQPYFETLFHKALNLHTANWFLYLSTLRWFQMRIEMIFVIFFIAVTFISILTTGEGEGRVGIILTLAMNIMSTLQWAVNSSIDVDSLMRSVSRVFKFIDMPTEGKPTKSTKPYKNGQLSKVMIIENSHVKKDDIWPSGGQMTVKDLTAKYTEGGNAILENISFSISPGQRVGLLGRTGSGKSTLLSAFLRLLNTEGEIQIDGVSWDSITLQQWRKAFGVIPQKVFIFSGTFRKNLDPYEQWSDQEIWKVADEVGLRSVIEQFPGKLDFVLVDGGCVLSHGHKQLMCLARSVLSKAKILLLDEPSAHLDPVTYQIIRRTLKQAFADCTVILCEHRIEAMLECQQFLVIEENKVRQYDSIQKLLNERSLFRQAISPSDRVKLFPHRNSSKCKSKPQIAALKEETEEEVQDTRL

SMILES: CC1(C)C[C@@H]2CCCNc3cccc(n3)S(=O)(=O)NC(=O)c3ccc(-n4ccc(OCCC5C(C)(C)C5(C)C)n4)nc3N1C2 [Compound 185, (14S)-12,12-Dimethyl-8-{3-[2-(2,2,3,3-tetramethylcyclopropyl)ethoxy]-1H-pyrazol-1-yl}-2λ^6-thia-3,9,11,18,23-pentaazatetracyclo[17.3.1.111,14.05,10]tetracosa-1(23),5(10),6,8,19,21-hexaene-2,2,4-trione]
- ring closure, isolated yield ([1]; from CC(C)(C)OC(=O)N1C[C@@H](CCCNc2cccc(S(=O)(=O)NC(=O)c3ccc(-n4ccc(OCCC5C(C)(C)C5(C)C)n4)nc3Cl)n2)CC1(C)C, 15-membered ring, K2CO3/3A MS, DMSO, 37.9 mM, 160.0 °C, 2 steps): 19%
- EC50 [2]: < 1000 nM
- Max. Activity [2]: +++ (+++ is >60%)

SMILES: [2H]C([2H])(COc1ccn(-c2ccc3c(n2)N2C[C@@H](CCCNc4cccc(n4)S(=O)(=O)NC3=O)CC2(C)C)n1)C([2H])([2H])C1(C(F)(F)F)CC1 [Compound 287, (14S)-12,12-dimethyl-8-(3-{3-[1-(trifluoromethyl)cyclopropyl]-2,2,3,3-tetradeuterio-propoxy}-1H-pyrazol-1-yl)-2λ^6-thia-3,9,11,18,23-pentaazatetracyclo[17.3.1.111,14.05,10]tetracosa-1(22),5,7,9,19(23),20-hexaene-2,2,4-trione]
- ring closure, isolated yield ([1]; from [2H]C([2H])(COc1ccn(-c2ccc(C(=O)NS(=O)(=O)c3cccc(NCCC[C@@H]4CNC(C)(C)C4)n3)c(Cl)n2)n1)C([2H])([2H])C1(C(F)(F)F)CC1, 15-membered ring, K2CO3, NMP, 20.8 mM, 155.0 °C, 18.0 h): 73%
- EC50 [2]: < 1000 nM
- Max. Activity [2]: ++ (++ is 30-60%)

SMILES: [2H]C([2H])([2H])C1(C([2H])([2H])[2H])C[C@@H]2CCCNc3cccc(n3)S(=O)(=O)NC(=O)c3ccc(-n4ccc(OCCC5C6(CC6)C56CC6)n4)nc3N1C2 [Compound 274, (14S)-8-[3-(2-{Dispiro[2.0.2.1]heptan-7-yl}ethoxy)-1H-pyrazol-1-yl]-12,12-di(trideuterio)methyl-2λ^6-thia-3,9,11,18,23-pentaazatetracyclo[17.3.1.111,14.05,10]tetracosa-1(23),5,7,9,19,21-hexaene-2,2,4-trione]
- ring closure, isolated yield ([1]; from [2H]C([2H])([2H])C1(C([2H])([2H])[2H])C[C@H](CCCNc2cccc(S(=O)(=O)NC(=O)c3ccc(-n4ccc(OCCC5C6(CC6)C56CC6)n4)nc3Cl)n2)CN1, 15-membered ring, K2CO3, NMP, 53.5 mM, 150.0 °C): 47%
- EC50 [2]: < 1000 nM
- Max. Activity [2]: +++ (+++ is >60%)

SMILES: CC1(C)CC2CCNc3cccc(n3)S(=O)(=O)NC(=O)c3ccc(-n4ccc(OCCC5(C(F)(F)F)CC5)n4)nc3N1C2 (stereo not drawn) [Compound 20, 7,7-dimethyl-11-(3-{2-[1-(trifluoromethyl)cyclopropyl]ethoxy}-1H-pyrazol-1-yl)-17λ^6-thia-2,8,10,16,22-pentaazatetracyclo[16.3.1.15,8.09,14]tricosa-1(21),9,11,13,18(22),19-hexaene-15,17,17-trione]
- ring closure, isolated yield ([1]; from CC1(C)CC(CCNc2cccc(S(=O)(=O)NC(=O)c3ccc(-n4ccc(OCCC5(C(F)(F)F)CC5)n4)nc3Cl)n2)CN1, 14-membered ring, K2CO3/CsF/3A MS, DMSO, 54.4 mM, 155.0 °C): 43%
- EC50 [2]: < 1000 nM
- Max. Activity [2]: +++ (+++ is >60%)

SMILES: CC1(C)CC2CCCCNc3cccc(n3)S(=O)(=O)NC(=O)c3ccc(-n4ccc(OCCC5(C(F)(F)F)CC5)n4)nc3N1C2 (racemic) [Compound 28, 12,12-dimethyl-8-(3-{2-[1-(trifluoromethyl)cyclopropyl]ethoxy}-1H-pyrazol-1-yl)-2λ^6-thia-3,9,11,19,24-pentaazatetracyclo[18.3.1.111,14.05,10]pentacosa-1(23),5,7,9,20(24),21-hexaene-2,2,4-trione]
- ring closure, isolated yield ([1]; from CC1(C)CC(CCCCNc2cccc(S(=O)(=O)NC(=O)c3ccc(-n4ccc(OCCC5(C(F)(F)F)CC5)n4)nc3Cl)n2)CN1, 16-membered ring, K2CO3/CsF/3A MS, DMSO, 62.4 mM, 150.0 °C, 18.0 h, 2 steps): 60%
- EC50 [2]: < 1000 nM
- Max. Activity [2]: ++ (++ is 30-60%)

SMILES: CC1(C)C2CCNc3cccc(n3)S(=O)(=O)NC(=O)c3ccc(-n4ccc(OCCC5(C(F)(F)F)CC5)n4)nc3N1CC2 (stereo not drawn) [Compound 236, 23,23-Dimethyl-11-(3-{2-[1-(trifluoromethyl)cyclopropyl]ethoxy}-1H-pyrazol-1-yl)-17λ^6-thia-2,8,10,16,22-pentaazatetracyclo[16.3.1.15,8.09,14]tricosa-1(22),9,11,13,18,20-hexaene-15,17,17-trione]
- ring closure, isolated yield ([1]; from CC1(C)NCCC1CCNc1cccc(S(=O)(=O)NC(=O)c2ccc(-n3ccc(OCCC4(C(F)(F)F)CC4)n3)nc2Cl)n1, 14-membered ring, K2CO3/3A MS, DMSO, 25.1 mM, 180.0 °C, 18.0 h): 2%
- EC50 [2]: > 3000 nM
- Max. Activity [2]: + (+ is <30%)

SMILES: CC1(C)CC2CCCCn3ccc(n3)S(=O)(=O)NC(=O)c3ccc(-n4ccc(OCCC5(C(F)(F)F)CC5)n4)nc3N1C2 (stereo not drawn) [Compound 39, 21,21-dimethyl-4-(3-{2-[1-(trifluoromethyl)cyclopropyl]ethoxy}-1H-pyrazol-1-yl)-10λ^6-thia-1,3,9,14,23-pentaazatetracyclo[17.2.1.111,14.02,7]tricosa-2,4,6,11(23),12-pentaene-8,10,10-trione]
- ring closure, isolated yield ([1]; from CC(C)(C)OC(=O)N1CC(CCCCn2ccc(S(=O)(=O)NC(=O)c3ccc(-n4ccc(OCCC5(C(F)(F)F)CC5)n4)nc3Cl)n2)CC1(C)C, 15-membered ring, HCl (Boc off), K2CO3/CsF/3A MS, DMSO, 63.7 mM, 150.0 °C, 2 steps): 37%
- EC50 [2]: 1000 to 3000 nM
- Max. Activity [2]: +++ (+++ is >60%)

SMILES: CC(C)(C)CCCOC1CCN(c2ccc3c(n2)N2C[C@@H](CCCNc4cccc(n4)S(=O)(=O)NC3=O)CC2(C)C)C1=O (single isomer, unassigned; diastereomer 1)
- ring closure, isolated yield ([1]; from 2-chloro-6-[3-(4,4-dimethylpentoxy)-2-oxo-pyrrolidin-1-yl]-N-[[6-[3-[(3S)-5,5-dimethylpyrrolidin-3-yl]propylamino]-2-pyridyl]sulfonyl]pyridine-3-carboxamide (dihydrochloride salt), 15-membered ring, K2CO3, NMP, 24.7 mM, 155.0 °C): 20%

SMILES: CC1(C)CC2CCCCCNc3cccc(n3)S(=O)(=O)NC(=O)c3ccc(-n4ccc(OCCC5(C(F)(F)F)CC5)n4)nc3N1C2 (single isomer, unassigned; enantiomer 2)
- ring closure, isolated yield ([1]; from CC1(C)CC(CCCCCNc2cccc(S(=O)(=O)NC(=O)c3ccc(-n4ccc(OCCC5(C(F)(F)F)CC5)n4)nc3Cl)n2)CN1, 17-membered ring, K2CO3/CsF/3A MS, DMSO, 35.8 mM, 165.0 °C, 16.0 h): 50%

SMILES: CC1(C)C[C@@H]2CCCNc3cccc(n3)S(=O)(=O)NC(=O)c3ccc(-n4ccc(OCC(O[Si](C)(C)C(C)(C)C)C5C6(CC6)C56CC6)n4)nc3N1C2 (stereo partly drawn)
- ring closure, isolated yield ([1]; from CC1(C)C[C@H](CCCNc2cccc(S(=O)(=O)NC(=O)c3ccc(-n4ccc(OCC(O[Si](C)(C)C(C)(C)C)C5C6(CC6)C56CC6)n4)nc3Cl)n2)CN1, 15-membered ring, K2CO3/MS, DMSO, 9.9 mM, 140.0 °C, 12.0 h): 55%

SMILES: CC1(C)C[C@@H]2CCCNc3cc(OCc4ccccc4)cc(n3)S(=O)(=O)NC(=O)c3ccc(-n4ccc(OCCC5C6(CC6)C56CC6)n4)nc3N1C2
- ring closure, isolated yield ([1]; from CC1(C)C[C@H](CCCNc2cc(OCc3ccccc3)cc(S(=O)(=O)NC(=O)c3ccc(-n4ccc(OCCC5C6(CC6)C56CC6)n4)nc3Cl)n2)CN1, 15-membered ring, K2CO3/CsF, DMSO, 15.3 mM, 160.0 °C, 15.0 h): 61%

SMILES: CC1(C)C[C@@H]2CCCNc3cc(OCc4ccccc4)cc(n3)S(=O)(=O)NC(=O)c3ccc(-n4ccc(OCCCC5(C(F)(F)F)CC5)n4)nc3N1C2
- ring closure, isolated yield ([1]; from CC1(C)C[C@H](CCCNc2cc(OCc3ccccc3)cc(S(=O)(=O)NC(=O)c3ccc(-n4ccc(OCCCC5(C(F)(F)F)CC5)n4)nc3Cl)n2)CN1, 15-membered ring, K2CO3/CsF, DMSO, 14.1 mM, 160.0 °C, 15.0 h): 56%

SMILES: CC1CCC2CN(c3nc(Cl)ccc3C(=O)NS(=O)(=O)c3cccc(n3)N1)C(C)(C)C2 (stereo not drawn)
- ring closure, isolated yield ([1]; from CC(CCC1CN(C(=O)OC(C)(C)C)C(C)(C)C1)Nc1cccc(S(=O)(=O)NC(=O)c2ccc(Cl)nc2Cl)n1, 15-membered ring, K2CO3/CsF/3A MS, DMSO, 229.0 mM, 140.0 °C, 2 steps): 31%

SMILES: [2H]C([2H])(COc1ccn(-c2ccc3c(n2)N2C[C@@H](CCCNc4nc(ccc4OCc4ccccc4)S(=O)(=O)NC3=O)CC2(C)C)n1)C1C2(CC2)C12CC2
- ring closure, isolated yield ([1]; from [2H]C([2H])(COc1ccn(-c2ccc(C(=O)NS(=O)(=O)c3ccc(OCc4ccccc4)c(NCCC[C@@H]4CN(C(=O)OC(C)(C)C)C(C)(C)C4)n3)c(Cl)n2)n1)C1C2(CC2)C12CC2, 15-membered ring, K2CO3/CsF/4A MS, DMSO, 51.0 mM, 150.0 °C, 2 steps): 68%

SMILES: CC1(C)C[C@@H]2CCCNc3ccc(OCc4ccccc4)c(n3)S(=O)(=O)NC(=O)c3ccc(-n4ccc(OCCCC5(C(F)(F)F)CC5)n4)nc3N1C2
- ring closure, isolated yield ([1]; from N-[[3-benzyloxy-6-[3-[(3S)-5,5-dimethylpyrrolidin-3-yl]propylamino]-2-pyridyl]sulfonyl]-2-chloro-6-[3-[3-[1-(trifluoromethyl)cyclopropyl]propoxy]pyrazol-1-yl]pyridine-3-carboxamide (ditrifluoroacetate salt), 15-membered ring, K2CO3, NMP, 42.6 mM, 150.0 °C): 39%

SMILES: CC1(C)C[C@@H]2CCCNc3nc(ccc3OCc3ccccc3)S(=O)(=O)NC(=O)c3ccc(-n4ccc(OCCC5C6(CC6)C56CC6)n4)nc3N1C2
- ring closure, isolated yield ([1]; from CC1(C)C[C@H](CCCNc2nc(S(=O)(=O)NC(=O)c3ccc(-n4ccc(OCCC5C6(CC6)C56CC6)n4)nc3Cl)ccc2OCc2ccccc2)CN1, 15-membered ring, K2CO3/CsF, DMSO, 17.2 mM, 160.0 °C, 15.0 h): 83%
